Tests used:
Type in all cases: in vivo
Setaria verticillata = test: Examples 6-8 herbicidal effect: SETVE; details: 7 DAA
Matricaria chamomilla = test: Examples 6-8 herbicidal effect: MATCH; details: 7 DAA
Geranium dissectum = test: Examples 6-8 herbicidal effect: GERDI; details: 7 DAA
Veronica persica = test: Examples 6-8 herbicidal effect: VERPE; details: 7 DAA
Solanum nigrum = test: Examples 6-8 herbicidal effect: SOLNI; details: 7 DAA
Chenopodium album [1] = test: Examples 6-8 herbicidal effect: CHEAL; details: 7 DAA
Digitaria sanguinalis = test: Examples 6-8 herbicidal effect: DIGSA; details: 7 DAA
Poa annua = test: Examples 6-8 herbicidal effect: POAAN; details: 7 DAA
Echinochloa crus-galli = test: Examples 6-8 herbicidal effect: ECHCG; details: 7 DAA
Bassia scoparia = test: Field trial post-emergence in maize: KCHSC; details: 13-14 DAA; # = 2; g a.c./ha: PYR 450, TEM 38, PYR + TEM 450 + 38
Procedure: (§1) Herbicidal activity of herbicide compositions according to the first aspect of the present invention with regard to different types of unwanted vegetation was determined during trials performed on test fields (field trials). Individual compositions comprising pyridate and individual compositions comprising a defined 4-HPPD inhibitor are compared with a herbicide composition according to the invention comprising both pyridate and a defined 4-HPPD inhibitor. The expected activity of the combination of the active compounds pyridate and a defined 4-HPPD inhibitor is calculated according to above mentioned calculation method by Colby, in order to evaluate a synergistic effect between pyridate and a defined 4-HPPD inhibitor.
(§2) Herbicidal activity was determined by applying herbicide compositions on emerged unwanted vegetation on fields where maize was cultivated. Pyridate and a defined 4-HPPD inhibitor were applied as a tank mixture by mixing these active compounds prior to use in a spray tank. The corresponding mixture was in the form of a spray liquor. […] At a specified number of days after application (DAA), the degree of damage to the unwanted vegetation is rated in % of plants of unwanted vegetation that were killed, which was assessed by visually controlling the plants.

Lamium amplexicaule = test: Example 6 herbicidal effect: LAMAM; details: 7 DAA
Chenopodium album [2] = test: Field trial post-emergence in maize: CHEAL; details: 13-14 DAA, # = 1
Procedure: as §1
(§3) Herbicidal activity was determined by applying herbicide compositions on emerged unwanted vegetation on fields where maize was cultivated. Pyridate and a defined 4-HPPD inhibitor were applied as a tank mixture by mixing these active compounds prior to use in a spray tank. The corresponding mixture was in the form of a spray liquor. Besides, spray liquors of individual compositions comprising pyridate and of individual compositions comprising a defined 4-HPPD inhibitor were used. Test plants of unwanted vegetation with a growth stage corresponding to BBCH 10-18 (according to the extended BBCH-scale) were sprayed with the active compound preparations such that particular desired amounts of active compounds are applied per unit area. Spray liquor was diluted with water to arrive at an application volume of 50 to 450 L/ha. At a specified number of days after application (DAA), the degree of damage to the unwanted vegetation is rated in % of plants of unwanted vegetation that were killed, which was assessed by visually controlling the plants.

Amaranthus retroflexus = test: Field trial post-emergence in maize: AMARE; details: 13-14 DAA; # = 1; g a.c./ha: PYR 450, TOP 12.4, PYR + TOP 450 + 12.4
Procedure: as §1, §3

Sinapis arvensis = test: Field trial post-emergence in maize: SINAR; details: 13-14 DAA; # = 1; g a.c./ha: PYR 450, TOP 12.4, PYR + TOP 450 + 12.4
Procedure: as §1, §2

[3] = tested on: Brassica rapa Canola cultivars; test: Field trial post-emergence in maize: BRSRC; details: 13-14 DAA; # = 1; g a.c./ha: PYR 450, TOP 12.4, PYR + TOP 450 + 12.4
Procedure: as §1, §3

[4] = g a.c./ha: PYR 300, SCT 300, PYR + SCT 300 + 300
[5] = g a.c./ha: PYR 450, SCT 450, PYR + SCT 300 + 450
[6] = g a.c./ha: SMO 800, PYR + NIC 300 + 30
[7] = g a.c./ha: PYR 10, TEM 22, PYR + TEM 10 + 100
[8] = g a.c./ha: PYR 300, TEM 100, PYR + TEM 300 + 100
[9] = g a.c./ha: PYR 900, TEM 44, PYR + TEM 900 + 44

What does the source list for `COc1cc(OC)nc(NC(=O)NS(=O)(=O)c2ncccc2C(=O)N(C)C)n1` [NIC, nicosulfuron]?
herbicidal effect (h.e.) (Setaria verticillata; NIC 30 g a.c./ha): 37%; herbicidal effect (h.e.) (Matricaria chamomilla; NIC 30 g a.c./ha): 6%; herbicidal effect (h.e.) (Geranium dissectum; NIC 30 g a.c./ha): 33%; herbicidal effect (h.e.) (Veronica persica; NIC 30 g a.c./ha): 7%; herbicidal effect (h.e.) (Solanum nigrum; NIC 30 g a.c./ha): 17%; herbicidal effect (h.e.) (Chenopodium album [1]; NIC 30 g a.c./ha): 24%; herbicidal effect (h.e.) (Digitaria sanguinalis; NIC 30 g a.c./ha): 32%; herbicidal effect (h.e.) (Poa annua; NIC 30 g a.c./ha): 75%; herbicidal effect (h.e.) (Echinochloa crus-galli; NIC 30 g a.c./ha): 38%

What does the source list for `CS(=O)(=O)c1ccc(C(=O)C2C(=O)CCCC2=O)c(Cl)c1` [SCT, 2-[2-Chloro-4-(methylsulfonyl)benzoyl]cyclohexane-1,3-dione]?
herbicidal effect (h.e.) (Setaria verticillata; [4]): 2%; herbicidal effect (h.e.) (Setaria verticillata; [5]): 2%; herbicidal effect (h.e.) (Matricaria chamomilla; [4]): 28%; herbicidal effect (h.e.) (Matricaria chamomilla; [5]): 25%; herbicidal effect (h.e.) (Geranium dissectum; [4]): 28%; herbicidal effect (h.e.) (Geranium dissectum; [5]): 50%; herbicidal effect (h.e.) (Veronica persica; [4]): 83%; herbicidal effect (h.e.) (Veronica persica; [5]): 80%; herbicidal effect (h.e.) (Solanum nigrum; [4]): 53%; herbicidal effect (h.e.) (Solanum nigrum; [5]): 53%; herbicidal effect (h.e.) (Chenopodium album [1]; [4]): 30%; herbicidal effect (h.e.) (Chenopodium album [1]; [5]): 45%; herbicidal effect (h.e.) (Digitaria sanguinalis; [4]): 60%; herbicidal effect (h.e.) (Digitaria sanguinalis; [5]): 53%; herbicidal effect (h.e.) (Poa annua; [4]): 3%; herbicidal effect (h.e.) (Poa annua; [5]): 3%; herbicidal effect (h.e.) (Echinochloa crus-galli; [4]): 58%; herbicidal effect (h.e.) (Echinochloa crus-galli; [5]): 60%

Which “herbicidal effect (h.e.)” value (Setaria verticillata; [6]) does the source give for `CCc1cccc(C)c1N(C(=O)CCl)[C@@H](C)COC` [SMO, S-metolachlor] here?
The value was 0%.

What about the “herbicidal effect (h.e.)” value (Matricaria chamomilla; [6]) of the same compound?
Its value is 0%.

And the “herbicidal effect (h.e.)” value (Geranium dissectum; [6])?
The value was 0%.

What about the “herbicidal effect (h.e.)” value (Veronica persica; [6]) of the same compound?
Its value is 5%.

What about the “herbicidal effect (h.e.)” value (Solanum nigrum; [6]) of the same compound?
The value was 3%.

What about the “herbicidal effect (h.e.)” value (Chenopodium album [1]; [6]) of the same compound?
The value was 1%.

What about the “herbicidal effect (h.e.)” value (Digitaria sanguinalis; [6]) of the same compound?
Its value is 0%.

What about the “herbicidal effect (h.e.)” value (Poa annua; [6]) of the same compound?
Its value is 0%.

What about the “herbicidal effect (h.e.)” value (Echinochloa crus-galli; [6]) of the same compound?
Its value is 0%.

Which results are given for `CS(=O)(=O)c1ccc(C(=O)C2C(=O)CCCC2=O)c(Cl)c1COCC(F)(F)F` [TEM, 2-[2-chloro-4-methylsulfonyl-3-(2,2,2-trifluoroethoxymethyl)benzoyl]cyclohexane-1,3-dione]?
herbicidal effect (h.e.) (Setaria verticillata; [7]): 0%; herbicidal effect (h.e.) (Setaria verticillata; [8]): 100%; herbicidal effect (h.e.) (Setaria verticillata; [9]): 18%; herbicidal effect (h.e.) (Matricaria chamomilla; [7]): 15%; herbicidal effect (h.e.) (Matricaria chamomilla; [8]): 100%; herbicidal effect (h.e.) (Matricaria chamomilla; [9]): 70%; herbicidal effect (h.e.) (Geranium dissectum; [7]): 8%; herbicidal effect (h.e.) (Geranium dissectum; [8]): 33%; herbicidal effect (h.e.) (Geranium dissectum; [9]): 20%; herbicidal effect (h.e.) (Bassia scoparia): 40%; herbicidal effect (h.e.) (Lamium amplexicaule; [7]): 25%; herbicidal effect (h.e.) (Lamium amplexicaule; [8]): 40%; herbicidal effect (h.e.) (Lamium amplexicaule; [9]): 100%; herbicidal effect (h.e.) (Chenopodium album [2]; g a.c./ha: PYR 450, TEM 38, PYR + TEM 450 + 38): 0%; herbicidal effect (h.e.) (Veronica persica; [7]): 8%; herbicidal effect (h.e.) (Veronica persica; [8]): 53%; herbicidal effect (h.e.) (Veronica persica; [9]): 53%; herbicidal effect (h.e.) (Solanum nigrum; [7]): 40%; herbicidal effect (h.e.) (Solanum nigrum; [8]): 80%; herbicidal effect (h.e.) (Solanum nigrum; [9]): 85%; herbicidal effect (h.e.) (Chenopodium album [1]; [7]): 68%; herbicidal effect (h.e.) (Chenopodium album [1]; [8]): 78%; herbicidal effect (h.e.) (Chenopodium album [1]; [9]): 96%; herbicidal effect (h.e.) (Digitaria sanguinalis; [7]): 59%; herbicidal effect (h.e.) (Digitaria sanguinalis; [8]): 99%; herbicidal effect (h.e.) (Digitaria sanguinalis; [9]): 95%; herbicidal effect (h.e.) (Poa annua; [7]): 10%; herbicidal effect (h.e.) (Poa annua; [8]): 32%; herbicidal effect (h.e.) (Poa annua; [9]): 13%; herbicidal effect (h.e.) (Echinochloa crus-galli; [7]): 83%; herbicidal effect (h.e.) (Echinochloa crus-galli; [8]): 85%; herbicidal effect (h.e.) (Echinochloa crus-galli; [9]): 95%

What does the source list for `Cc1c(C(=O)c2c[nH]n(C)c2=O)ccc(S(C)(=O)=O)c1C1=NOCC1` [TOP, 4-[3-(4,5-dihydro-1,2-oxazol-3-yl)-2-methyl-4-methylsulfonylbenzoyl]-2-methyl-1H-pyrazol-3-one]?
herbicidal effect (h.e.) (Amaranthus retroflexus): 18%; herbicidal effect (h.e.) (Sinapis arvensis): 50%; herbicidal effect (h.e.) (Chenopodium album [2]; g a.c./ha: PYR 450, TOP 12.4, PYR + TOP 450 + 12.4): 1%; herbicidal effect (h.e.) [3]: 50%

Reference: US12396459B2, “Synergistically effective herbicide composition comprising pyridate and at least one defined 4-HPPD inhibitor” (BELCHIM CROP PROTECTION NV, priority 2018, dated 2025)
